Experiments:
HCT116 p53+/+ cells = test: Apoptosis (annexin V FACS, DNA laddering, phase contrast) in HCT116 p53+/+ cells; format: cell-based, human
HCT116 p53−/− cells = test: Apoptosis (annexin V FACS, DNA laddering, phase contrast) in HCT116 p53−/− cells; format: cell-based, human; details: sulindac sulphide 120 μM, 24 and 48 hr
Experimental: HCT116 clones were cultured in DMEM with 10% FCS. All the cell clones were cultured with penicillin 100 units ml^−1 and streptomycin 100 μg ml^−1 at 37° C. in 5% CO2 in air. Other human colorectal cancer cells lines, also defective for DNA mismatch repair (see Branch et al., 1995), were:- LoVo and RKO (p53 wild type); DLD1, LS174T, SW48 and HT29 (all p53 mutant). For transfection the cells were trypsinised and sub-cultured into 6 well plates (10 cm^2) without antibiotics, 1.5×10^5 cells per well. Selected 21-nucleotide RNAs were synthesised and BPLC purified (MWG; Germany) and annealed into siRNA duplexes according to the instructions supplied. 24 h after sub-culture the cells were transfected with siRNA formulated into liposomes (Oligofectamine, Life Technologies) according to the manufacturer's instructions. […] The final volume of culture medium was 1.5 ml per well. Cells were harvested for analysis at various times thereafter as indicated in the results. Each experiment with HCT116 cells was carried out four or more times. Transfection efficiencies were established by transfecting with liposomes containing FITC-dextran (Jiang and Milner, 2002). […]
Cell growth curves were determined by cell counting. […] The fixed cells were pelleted, washed in PBS and resuspended in PBS containing 0.1 μg/ml propidium iodide with 200 U/ml RNase A and analysed by FACS. […]

Structure (SMILES): O=c1[nH]cc(F)c(=O)[nH]1 [5′ FU, 5-fluorouracil]
- apoptosis by agents that activate p53 (HCT116 p53+/+ cells; HCT116 cells, Zhang et al., 2000 and results not shown): induced

Structure (SMILES): CC1=C(CC(=O)O)c2cc(F)ccc2/C1=C\c1ccc([S+](C)[O-])cc1 (stereo not drawn) [Sulindac, sulindac]
- apoptosis induced by treatment with sulindac (HCT116 p53+/+ cells; p53+/+ cells, sulindac sulphide 120 μM, 24 and 48 hr): induced apoptosis
- apoptosis induced by treatment with sulindac (HCT116 p53−/− cells): induced apoptosis
